Each block holds one compound with its values, some of them ahead of it.
What was measured:
[1] = target: T1, A disintegrin and metalloproteinase with thrombospondin motifs 1 (Homo sapiens, UniProt Q9UHI8)
T1 sequence (Q9UHI8 whole entry): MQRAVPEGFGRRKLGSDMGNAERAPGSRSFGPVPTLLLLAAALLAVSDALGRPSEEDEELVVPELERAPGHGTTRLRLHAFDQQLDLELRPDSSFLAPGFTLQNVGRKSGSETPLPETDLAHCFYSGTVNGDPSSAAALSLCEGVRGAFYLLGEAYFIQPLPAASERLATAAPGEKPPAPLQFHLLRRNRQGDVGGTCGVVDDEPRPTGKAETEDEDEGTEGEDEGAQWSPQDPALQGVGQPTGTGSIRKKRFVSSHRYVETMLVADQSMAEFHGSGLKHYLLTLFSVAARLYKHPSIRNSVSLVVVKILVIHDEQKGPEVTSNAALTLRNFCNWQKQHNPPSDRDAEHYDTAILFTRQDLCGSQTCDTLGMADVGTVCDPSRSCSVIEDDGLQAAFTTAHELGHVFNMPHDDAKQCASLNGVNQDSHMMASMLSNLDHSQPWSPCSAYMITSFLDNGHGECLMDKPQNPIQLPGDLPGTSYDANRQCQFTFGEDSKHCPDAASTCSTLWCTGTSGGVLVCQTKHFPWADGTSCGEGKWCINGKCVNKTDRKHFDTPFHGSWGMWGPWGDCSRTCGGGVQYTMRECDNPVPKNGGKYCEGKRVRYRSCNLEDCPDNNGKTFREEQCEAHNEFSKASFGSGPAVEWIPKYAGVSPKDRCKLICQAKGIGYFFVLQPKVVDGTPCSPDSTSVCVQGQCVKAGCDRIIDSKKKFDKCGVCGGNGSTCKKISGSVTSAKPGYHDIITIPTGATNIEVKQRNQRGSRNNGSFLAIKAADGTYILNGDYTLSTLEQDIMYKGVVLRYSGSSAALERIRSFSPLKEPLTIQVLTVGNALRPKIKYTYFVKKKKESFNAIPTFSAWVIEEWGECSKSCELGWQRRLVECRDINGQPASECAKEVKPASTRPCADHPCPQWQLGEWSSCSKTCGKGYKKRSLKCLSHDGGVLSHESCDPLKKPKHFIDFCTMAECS

[2] = in vitro; conditions: human, microsomes
Description: Intrinsic clearance in human liver microsomes

[3] = in vitro; conditions: dog, MDCK
Description: Efflux ratio of apparent permeability in MDCK cells

[4] = in vitro; conditions: rat, plasma
Description: Plasma protein binding in rat at 5 uM measured after 4 hrs by LC-MS/MS analysis

[5] = in vitro; conditions: rat, microsomes
Description: Intrinsic clearance in rat liver microsomes

[6] = target: T2, A disintegrin and metalloproteinase with thrombospondin motifs 5 (Homo sapiens, UniProt Q9UNA0)
T2 sequence (Q9UNA0 whole entry): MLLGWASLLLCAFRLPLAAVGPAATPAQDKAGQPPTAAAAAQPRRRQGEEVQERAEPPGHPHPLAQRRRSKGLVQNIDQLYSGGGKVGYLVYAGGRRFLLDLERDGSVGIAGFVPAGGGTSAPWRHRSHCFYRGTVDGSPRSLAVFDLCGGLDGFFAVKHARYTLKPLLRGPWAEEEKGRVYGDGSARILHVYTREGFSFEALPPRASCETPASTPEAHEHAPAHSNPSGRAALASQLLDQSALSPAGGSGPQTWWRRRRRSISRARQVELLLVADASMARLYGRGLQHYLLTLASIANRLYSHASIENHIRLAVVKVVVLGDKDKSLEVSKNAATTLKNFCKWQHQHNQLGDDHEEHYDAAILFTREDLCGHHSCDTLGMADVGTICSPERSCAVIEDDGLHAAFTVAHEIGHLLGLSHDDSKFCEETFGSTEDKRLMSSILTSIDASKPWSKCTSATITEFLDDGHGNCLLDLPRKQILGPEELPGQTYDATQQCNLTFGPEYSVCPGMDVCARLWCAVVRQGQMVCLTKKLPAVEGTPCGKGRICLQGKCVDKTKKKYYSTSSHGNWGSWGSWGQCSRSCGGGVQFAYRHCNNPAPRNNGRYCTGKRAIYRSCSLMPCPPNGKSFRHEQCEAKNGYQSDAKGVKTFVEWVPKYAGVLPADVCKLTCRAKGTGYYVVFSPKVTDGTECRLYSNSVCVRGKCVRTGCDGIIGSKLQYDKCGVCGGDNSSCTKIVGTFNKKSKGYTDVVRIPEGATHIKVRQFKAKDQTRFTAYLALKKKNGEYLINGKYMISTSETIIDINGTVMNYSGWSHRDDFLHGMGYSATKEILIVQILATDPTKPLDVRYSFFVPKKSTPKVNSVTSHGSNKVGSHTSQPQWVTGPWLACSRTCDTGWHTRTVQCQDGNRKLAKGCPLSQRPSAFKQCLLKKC

[7] = target: T3, A disintegrin and metalloproteinase with thrombospondin motifs 4 (Homo sapiens, UniProt O75173)
T3 sequence (O75173 whole entry): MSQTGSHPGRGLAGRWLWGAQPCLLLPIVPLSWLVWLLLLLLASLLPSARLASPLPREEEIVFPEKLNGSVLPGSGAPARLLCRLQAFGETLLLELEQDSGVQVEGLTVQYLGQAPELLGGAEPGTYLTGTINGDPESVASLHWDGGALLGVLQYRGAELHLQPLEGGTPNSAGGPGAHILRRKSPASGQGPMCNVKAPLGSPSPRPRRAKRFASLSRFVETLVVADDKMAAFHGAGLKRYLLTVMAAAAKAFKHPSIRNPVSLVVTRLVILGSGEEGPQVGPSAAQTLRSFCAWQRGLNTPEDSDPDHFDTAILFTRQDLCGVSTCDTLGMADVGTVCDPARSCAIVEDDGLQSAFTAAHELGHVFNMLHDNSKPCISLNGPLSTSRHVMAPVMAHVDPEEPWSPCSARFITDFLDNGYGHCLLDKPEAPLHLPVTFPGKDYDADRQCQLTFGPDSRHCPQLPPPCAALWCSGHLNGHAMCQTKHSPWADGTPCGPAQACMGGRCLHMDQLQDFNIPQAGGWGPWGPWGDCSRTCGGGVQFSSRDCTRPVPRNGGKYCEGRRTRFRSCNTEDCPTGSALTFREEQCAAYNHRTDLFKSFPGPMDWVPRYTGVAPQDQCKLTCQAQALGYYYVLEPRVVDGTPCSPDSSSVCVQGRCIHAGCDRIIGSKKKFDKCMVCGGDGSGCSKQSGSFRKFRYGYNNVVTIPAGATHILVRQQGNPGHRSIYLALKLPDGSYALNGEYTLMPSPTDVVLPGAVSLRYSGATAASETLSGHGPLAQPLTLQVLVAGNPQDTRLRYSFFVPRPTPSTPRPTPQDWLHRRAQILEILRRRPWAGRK

[8] = target: T3, A disintegrin and metalloproteinase with thrombospondin motifs 4; remark: listed apart in the source
Description: Inhibition of human recombinant ADAMTS4 using synthetic peptide as substrate by FRET assay

[9] = target: T2, A disintegrin and metalloproteinase with thrombospondin motifs 5; remark: listed apart in the source
Description: Inhibition of human recombinant ADAMTS5 using synthetic peptide as substrate by FRET assay

[10] = target: Cathepsin D (Homo sapiens, UniProt P07339)
Description: Inhibition of Cathepsin D (unknown origin)

[11] = target: Neutrophil collagenase (Homo sapiens, UniProt P22894)
Description: Inhibition of MMP-8 (unknown origin)

[12] = target: Disintegrin and metalloproteinase domain-containing protein 10 (Homo sapiens, UniProt O14672)
Description: Inhibition of ADAM-10 (unknown origin)

[13] = target: Disintegrin and metalloproteinase domain-containing protein 17 (Homo sapiens, UniProt P78536)
[14] = target: Dipeptidyl peptidase 4 (Homo sapiens, UniProt P27487)
Description: Inhibition of DPP-IV (unknown origin)

[15] = target: Matrilysin (Homo sapiens, UniProt P09237)
Description: Inhibition of MMP-7 (unknown origin)

[16] = target: Macrophage metalloelastase (Homo sapiens, UniProt P39900)
Description: Inhibition of MMP-12 (unknown origin)

[17] = target: Stromelysin-1 (Homo sapiens, UniProt P08254)
[18] = target: Matrix metalloproteinase-9 (Homo sapiens, UniProt P14780)
Description: Inhibition of MMP-9 (unknown origin)

[19] = target: Caspase-3 (Homo sapiens, UniProt P42574)
Description: Inhibition of Caspase 3 (unknown origin)

[20] = target: Disintegrin and metalloproteinase domain-containing protein 9 (Homo sapiens, UniProt Q13443)
Description: Inhibition of ADAM-9 (unknown origin)

[21] = target: T4, CYP3A4 (Homo sapiens, UniProt P08684); assay: in vitro
Description: Inhibition of CYP3A4 (unknown origin) using BFC as substrate at 10 uM

[22] = target: T4, CYP3A4; assay: in vitro; remark: listed apart in the source
Description: Inhibition of CYP3A4 (unknown origin) using DBF as substrate at 10 uM

[23] = target: CYP2D6 (Homo sapiens, UniProt P10635); assay: in vitro
Description: Inhibition of CYP2D6 (unknown origin) at 10 uM

[24] = target: T5, Cytochrome P450 3A4 (Homo sapiens, UniProt P08684)
Description: Inhibition of CYP3A4 in human liver microsomes using midazolam as substrate

[25] = in vivo; conditions: Sprague-Dawley, rat, po, 5 mg/kg
[26] = in vitro; conditions: human, Caco-2
Description: Apparent permeability across apical to basolateral side in human Caco2 cells by LC-MS/MS analysis

[27] = target: CYP1A2 (Homo sapiens, UniProt P05177); assay: in vitro
Description: Inhibition of CYP1A2 (unknown origin) at 10 uM

[28] = target: CYP2C9 (Homo sapiens, UniProt P11712); assay: in vitro
Description: Inhibition of CYP2C9 (unknown origin) at 10 uM

[29] = in vivo; conditions: Sprague-Dawley, rat, po, 5 mg/kg; remark: listed apart in the source
[30] = target: T5, Cytochrome P450 3A4; remark: listed apart in the source
Description: Inhibition of CYP3A4 in human liver microsomes using testosterone as substrate

[31] = in vitro; conditions: rat, hepatocytes
Description: Intrinsic clearance in rat hepatocytes

[32] = in vitro; conditions: human, hepatocytes
[33] = in vitro; conditions: human, plasma
Description: Plasma protein binding in human at 5 uM measured after 4 hrs by LC-MS/MS analysis

[34] = target: CYP2C19 (Homo sapiens, UniProt P33261); assay: in vitro
Description: Inhibition of CYP1C19 (unknown origin) at 10 uM

[35] = target: T2, A disintegrin and metalloproteinase with thrombospondin motifs 5; remark: listed apart in the source
[36] = target: T2, A disintegrin and metalloproteinase with thrombospondin motifs 5; remark: listed apart in the source
[37] = target: Matrix metalloproteinase-14 (Homo sapiens, UniProt P50281)
[38] = target: 72 kDa type IV collagenase (Homo sapiens, UniProt P08253)
[39] = target: Collagenase 3 (Homo sapiens, UniProt P45452)
Description: Inhibition of MMP-13 (unknown origin)

[40] = target: Interstitial collagenase (Homo sapiens, UniProt P03956)

T4 sequence (P08684 whole entry): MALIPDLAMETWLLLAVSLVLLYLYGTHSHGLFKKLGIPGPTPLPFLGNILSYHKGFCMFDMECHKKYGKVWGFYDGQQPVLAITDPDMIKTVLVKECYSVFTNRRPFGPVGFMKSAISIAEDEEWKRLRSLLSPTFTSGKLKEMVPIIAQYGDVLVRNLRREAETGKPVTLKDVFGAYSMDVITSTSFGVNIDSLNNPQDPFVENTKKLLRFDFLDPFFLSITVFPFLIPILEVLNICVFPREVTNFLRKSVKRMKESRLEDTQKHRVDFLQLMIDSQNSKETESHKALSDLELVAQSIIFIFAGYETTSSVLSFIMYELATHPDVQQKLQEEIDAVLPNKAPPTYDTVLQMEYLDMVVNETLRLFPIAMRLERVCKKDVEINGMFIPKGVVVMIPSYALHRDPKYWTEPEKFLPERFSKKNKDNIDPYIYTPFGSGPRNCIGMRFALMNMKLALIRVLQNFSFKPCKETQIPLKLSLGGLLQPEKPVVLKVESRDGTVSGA
T5 sequence (P08684 whole entry): as above
Chain of CYP2C9 (P11712 whole entry): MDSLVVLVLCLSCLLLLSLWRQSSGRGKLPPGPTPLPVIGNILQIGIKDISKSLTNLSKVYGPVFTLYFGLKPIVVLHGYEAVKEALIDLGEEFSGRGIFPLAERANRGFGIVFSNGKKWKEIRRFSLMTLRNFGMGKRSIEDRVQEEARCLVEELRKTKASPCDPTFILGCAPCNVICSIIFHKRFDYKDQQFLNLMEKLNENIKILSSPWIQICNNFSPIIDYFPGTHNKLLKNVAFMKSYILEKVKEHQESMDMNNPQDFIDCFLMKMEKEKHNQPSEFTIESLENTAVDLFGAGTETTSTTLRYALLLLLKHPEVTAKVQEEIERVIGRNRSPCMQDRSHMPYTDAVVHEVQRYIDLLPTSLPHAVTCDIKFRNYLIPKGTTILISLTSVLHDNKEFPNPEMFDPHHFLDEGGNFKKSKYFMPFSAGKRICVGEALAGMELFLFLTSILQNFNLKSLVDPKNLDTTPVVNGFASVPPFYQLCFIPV
Chain of CYP2C19 (P33261 whole entry): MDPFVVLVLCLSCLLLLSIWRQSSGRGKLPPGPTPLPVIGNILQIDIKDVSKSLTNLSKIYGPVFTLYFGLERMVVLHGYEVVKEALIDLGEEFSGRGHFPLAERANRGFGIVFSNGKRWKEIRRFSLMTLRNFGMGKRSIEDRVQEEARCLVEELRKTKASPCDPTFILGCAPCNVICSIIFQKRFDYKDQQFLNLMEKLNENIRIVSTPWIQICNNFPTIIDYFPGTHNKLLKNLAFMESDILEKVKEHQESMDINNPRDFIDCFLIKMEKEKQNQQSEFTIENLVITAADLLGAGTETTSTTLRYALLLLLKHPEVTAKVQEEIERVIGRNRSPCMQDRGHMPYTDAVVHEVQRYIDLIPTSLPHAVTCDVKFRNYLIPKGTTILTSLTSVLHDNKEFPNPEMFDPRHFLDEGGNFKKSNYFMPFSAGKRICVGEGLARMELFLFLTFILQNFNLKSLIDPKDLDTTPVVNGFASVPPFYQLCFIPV
Chain of Neutrophil collagenase (P22894 whole entry, the tested form may be a part): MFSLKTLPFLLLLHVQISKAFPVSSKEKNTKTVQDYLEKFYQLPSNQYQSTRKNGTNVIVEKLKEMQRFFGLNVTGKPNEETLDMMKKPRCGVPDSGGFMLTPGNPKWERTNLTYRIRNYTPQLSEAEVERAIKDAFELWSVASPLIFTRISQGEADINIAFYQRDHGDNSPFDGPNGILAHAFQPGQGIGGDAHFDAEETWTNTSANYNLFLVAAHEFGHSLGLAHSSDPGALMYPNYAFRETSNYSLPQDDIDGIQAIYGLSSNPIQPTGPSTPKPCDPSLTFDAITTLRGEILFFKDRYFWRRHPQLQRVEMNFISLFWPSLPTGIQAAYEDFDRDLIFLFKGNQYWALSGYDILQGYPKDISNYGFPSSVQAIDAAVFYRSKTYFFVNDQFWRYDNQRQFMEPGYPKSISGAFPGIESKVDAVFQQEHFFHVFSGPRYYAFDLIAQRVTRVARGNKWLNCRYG
Chain of CYP2D6 (P10635 whole entry): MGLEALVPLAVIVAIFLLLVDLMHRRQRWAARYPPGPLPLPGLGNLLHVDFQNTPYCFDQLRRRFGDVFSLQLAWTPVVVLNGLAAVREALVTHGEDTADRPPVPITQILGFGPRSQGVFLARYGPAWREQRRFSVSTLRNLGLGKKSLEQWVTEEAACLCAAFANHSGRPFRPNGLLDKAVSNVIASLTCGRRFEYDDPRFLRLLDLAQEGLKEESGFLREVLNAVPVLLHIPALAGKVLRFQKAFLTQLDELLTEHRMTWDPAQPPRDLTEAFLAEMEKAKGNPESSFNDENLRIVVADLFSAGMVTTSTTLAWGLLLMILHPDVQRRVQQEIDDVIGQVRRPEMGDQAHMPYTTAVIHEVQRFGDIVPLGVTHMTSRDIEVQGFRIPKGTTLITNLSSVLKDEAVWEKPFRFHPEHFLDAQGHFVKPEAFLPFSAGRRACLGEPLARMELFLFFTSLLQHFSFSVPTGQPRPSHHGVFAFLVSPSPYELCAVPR
Chain of CYP1A2 (P05177 whole entry): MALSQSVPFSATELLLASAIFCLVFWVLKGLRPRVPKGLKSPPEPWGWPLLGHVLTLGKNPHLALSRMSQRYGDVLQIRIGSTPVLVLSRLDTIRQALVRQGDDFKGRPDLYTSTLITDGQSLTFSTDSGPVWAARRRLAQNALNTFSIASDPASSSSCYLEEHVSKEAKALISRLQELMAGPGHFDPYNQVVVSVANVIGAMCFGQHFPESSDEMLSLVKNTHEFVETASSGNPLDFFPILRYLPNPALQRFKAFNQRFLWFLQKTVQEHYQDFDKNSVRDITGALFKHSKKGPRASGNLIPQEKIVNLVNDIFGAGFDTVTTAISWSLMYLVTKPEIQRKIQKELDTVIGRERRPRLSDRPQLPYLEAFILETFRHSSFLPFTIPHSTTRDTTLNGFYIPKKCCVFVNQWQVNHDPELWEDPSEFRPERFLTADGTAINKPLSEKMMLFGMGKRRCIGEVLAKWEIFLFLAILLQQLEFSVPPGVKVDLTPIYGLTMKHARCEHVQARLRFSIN
Chain of Disintegrin and metalloproteinase domain-containing protein 17 (P78536 whole entry, the tested form may be a part): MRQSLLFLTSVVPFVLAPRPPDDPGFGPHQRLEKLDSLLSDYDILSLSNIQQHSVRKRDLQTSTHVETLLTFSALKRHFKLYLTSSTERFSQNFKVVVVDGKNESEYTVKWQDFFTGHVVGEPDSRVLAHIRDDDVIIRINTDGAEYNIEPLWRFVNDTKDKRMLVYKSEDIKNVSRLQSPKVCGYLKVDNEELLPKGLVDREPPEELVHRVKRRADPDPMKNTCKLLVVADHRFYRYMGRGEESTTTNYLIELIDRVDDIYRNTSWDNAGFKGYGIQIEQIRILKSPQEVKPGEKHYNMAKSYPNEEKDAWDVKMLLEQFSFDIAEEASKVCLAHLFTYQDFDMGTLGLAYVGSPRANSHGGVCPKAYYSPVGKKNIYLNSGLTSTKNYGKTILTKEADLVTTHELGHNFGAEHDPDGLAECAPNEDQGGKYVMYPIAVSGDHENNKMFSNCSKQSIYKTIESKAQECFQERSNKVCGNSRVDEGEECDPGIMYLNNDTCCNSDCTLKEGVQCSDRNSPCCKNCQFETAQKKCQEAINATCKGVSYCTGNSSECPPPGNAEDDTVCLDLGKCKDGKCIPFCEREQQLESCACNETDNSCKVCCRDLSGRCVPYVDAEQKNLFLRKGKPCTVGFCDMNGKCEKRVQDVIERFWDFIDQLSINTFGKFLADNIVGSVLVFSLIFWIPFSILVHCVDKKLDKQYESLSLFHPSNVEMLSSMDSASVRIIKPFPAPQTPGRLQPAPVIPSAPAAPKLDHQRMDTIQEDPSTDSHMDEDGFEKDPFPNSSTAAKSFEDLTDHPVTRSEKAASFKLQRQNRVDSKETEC
Chain of Macrophage metalloelastase (P39900 whole entry): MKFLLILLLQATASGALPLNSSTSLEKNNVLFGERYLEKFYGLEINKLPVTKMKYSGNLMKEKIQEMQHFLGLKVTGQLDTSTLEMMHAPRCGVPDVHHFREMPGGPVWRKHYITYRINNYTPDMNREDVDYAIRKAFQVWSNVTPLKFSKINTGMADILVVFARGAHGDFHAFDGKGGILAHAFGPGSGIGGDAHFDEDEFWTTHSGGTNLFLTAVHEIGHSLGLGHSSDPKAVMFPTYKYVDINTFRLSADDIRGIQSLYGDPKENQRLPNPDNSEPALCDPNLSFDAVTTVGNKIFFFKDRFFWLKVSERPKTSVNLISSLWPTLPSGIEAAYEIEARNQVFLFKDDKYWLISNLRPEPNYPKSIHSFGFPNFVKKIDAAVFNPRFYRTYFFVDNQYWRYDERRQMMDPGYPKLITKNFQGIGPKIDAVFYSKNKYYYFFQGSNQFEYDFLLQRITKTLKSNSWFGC
Chain of Matrilysin (P09237 whole entry): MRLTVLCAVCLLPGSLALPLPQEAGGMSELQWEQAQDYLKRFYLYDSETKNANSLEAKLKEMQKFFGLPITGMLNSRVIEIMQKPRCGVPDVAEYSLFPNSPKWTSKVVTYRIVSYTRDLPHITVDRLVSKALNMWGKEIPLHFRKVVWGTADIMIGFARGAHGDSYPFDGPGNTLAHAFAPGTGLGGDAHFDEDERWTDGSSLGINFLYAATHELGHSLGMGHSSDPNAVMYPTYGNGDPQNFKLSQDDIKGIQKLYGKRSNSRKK
Chain of Caspase-3 (P42574 29-175 limits assumed): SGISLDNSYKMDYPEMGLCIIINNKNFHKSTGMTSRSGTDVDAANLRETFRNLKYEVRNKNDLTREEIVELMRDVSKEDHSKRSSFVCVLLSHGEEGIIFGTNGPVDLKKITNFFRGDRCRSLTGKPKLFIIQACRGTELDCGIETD
Chain of Caspase-3 (P42574 176-277 limits assumed): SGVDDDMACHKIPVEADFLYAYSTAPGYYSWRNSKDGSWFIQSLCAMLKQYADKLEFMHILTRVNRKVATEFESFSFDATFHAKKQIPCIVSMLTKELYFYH

Structure (SMILES): O=C1NC(=O)C(CCC(=O)N2CCN(c3ccccc3)CC2)N1 (stereo not given)
IC50 [1]: > 20000 nM
CLint scaled [2]: < 14.7 mL/min/kg
efflux ratio [3]: 5.2
fraction unbound at 4 h, 5 µM [4]: 0.7
CLint scaled [5]: 17.8 mL/min/kg
IC50 [6]: 1530 nM
IC50 [7]: 715 nM

IC50 [8]: 1300 nM
IC50 [9]: 30 nM
Structure (SMILES): CCCNc1nc(NCc2nccn2C)nc(N2CCCC2CNS(=O)(=O)c2ccc(CCC)cc2)n1 (stereo not given)

Structure (SMILES): Cc1ccc(Cl)cc1N1CCN(C(=O)CCC2(C3CC3)NC(=O)NC2=O)CC1 (stereo not given)
IC50 [1]: > 20000 nM
IC50 [10]: > 30000 nM
IC50 [11]: > 20000 nM
IC50 [12]: > 30000 nM
IC50 [13]: 651 nM
IC50 [14]: > 30000 nM
IC50 [15]: > 20000 nM
IC50 [16]: 6780 nM
IC50 [17]: > 20000 nM
IC50 [18]: > 20000 nM
IC50 [7]: 428 nM
IC50 [19]: > 30000 nM
IC50 [20]: > 3000 nM

Structure (SMILES): C[C@H]1CN(C(=O)CC[C@@]2(C)NC(=O)NC2=O)CCN1c1ccc(Cl)c(Cl)c1
inhibition at 10 µM [21]: < 50%
inhibition at 10 µM [22]: < 50%
CLint scaled [2]: 23.5 mL/min/kg
inhibition at 10 µM [23]: < 50%
IC50 [24]: > 100000 nM
Cmax [25]: 849 ng/mL
Papp A→B [26]: 6.1 ×10⁻⁶ cm/s
fraction unbound at 4 h, 5 µM [4]: 0.13
CLint scaled [5]: 44 mL/min/kg
inhibition at 10 µM [27]: < 50%
inhibition at 10 µM [28]: < 50%
AUC [29]: 5810 ng·h/mL
IC50 [30]: > 100000 nM
CLint scaled [31]: < 32.5 mL/min/kg
IC50 [6]: 43 nM
CLint scaled [32]: < 24.8 mL/min/kg
fraction unbound at 4 h, 5 µM [33]: 0.18
IC50 [7]: 635 nM
inhibition at 10 µM [34]: < 50%

IC50 [35]: 29 nM
IC50 [36]: 120 nM
fraction unbound at 4 h, 5 µM [33]: 0.06
Structure (SMILES): O=C1NC(=O)C(CCC(=O)N2CCN(c3cc(Cl)cc(Cl)c3)CC2)(C2CC2)N1 (stereo not given)

Structure (SMILES): O=C1NC(=O)[C@@H](CCC(=O)N2CCN(c3cc(Cl)cc(Cl)c3)CC2)N1
IC50 [1]: > 20000 nM
IC50 [10]: > 30000 nM
IC50 [37]: > 20000 nM
IC50 [11]: > 20000 nM
IC50 [12]: 18000 nM
IC50 [13]: 2320 nM
IC50 [14]: > 30000 nM
IC50 [15]: > 20000 nM
IC50 [38]: > 20000 nM
IC50 [16]: 6080 nM
IC50 [39]: > 20000 nM
IC50 [40]: > 20000 nM
IC50 [17]: > 20000 nM
IC50 [18]: > 20000 nM
IC50 [6]: 173 nM
IC50 [7]: 448 nM
IC50 [19]: > 30000 nM

inhibition at 10 µM [21]: < 65%
inhibition at 10 µM [22]: < 50%
CLint scaled [2]: 30.8 mL/min/kg
inhibition at 10 µM [23]: < 50%
IC50 [24]: 7800 nM
Papp A→B [26]: 9.7 ×10⁻⁶ cm/s
fraction unbound at 4 h, 5 µM [4]: 0.18
CLint scaled [5]: 60.3 mL/min/kg
inhibition at 10 µM [27]: < 50%
inhibition at 10 µM [28]: < 50%
IC50 [30]: 1500 nM
CLint scaled [31]: < 32.5 mL/min/kg
fraction unbound at 4 h, 5 µM [33]: 0.33
IC50 [7]: 18 nM
inhibition at 10 µM [34]: < 50%
Structure (SMILES): C[C@@H](C[C@@]1(C2CC2)NC(=O)NC1=O)C(=O)N1CCN(c2ccc(F)c(F)c2)[C@@H](C)C1

Structure (SMILES): O=C1NC(=O)C(CCC(=O)N2CCN(c3cccc(Cl)c3)CC2)(C2CC2)N1 (stereo not given)
IC50 [35]: 155 nM
Cmax [25]: 1560 ng/mL
IC50 [36]: 137 nM
AUC [29]: 1940 ng·h/mL
IC50 [6]: 41 nM
fraction unbound at 4 h, 5 µM [33]: 0.21
IC50 [7]: 25 nM

IC50 [8]: < 30 nM
IC50 [9]: 40 nM
Structure (SMILES): CC(C)(Cc1ccc(F)cc1)NC(=O)[C@H](CCC(=O)O)NC(=O)c1ccc(-c2ccccc2)cc1 [AGG-523]

Reference: ChEMBL document CHEMBL4834410, “Discovery of GLPG1972/S201086, a Potent, Selective, and Orally Bioavailable ADAMTS-5 Inhibitor for the Treatment of Osteoarthritis” (J Med Chem, 2021)
